Source: the NIST ThermoML archive (doi:10.1021/je049656o)
± gives the expanded uncertainty stated by the source.

Assay: mn = molality of the nth substance listed, in mol/kg
Conditions: 298.15 K, 101.33 kPa, Liquid

Oc1ncc(Cl)c(O)n1 [5-chloro-2,4-pyrimidinedione] + CO
Conditions | molar enthalpy of solution [kJ/mol]
m1 = 0.000652 | 8.85 ± 0.71
m1 = 0.000899 | 9.62 ± 0.77
m1 = 0.000901 | 9.58 ± 0.77
m1 = 0.000954 | 9.31 ± 0.74
m1 = 0.000982 | 8.83 ± 0.71
m1 = 0.001245 | 8.85 ± 0.71

O=c1[nH]cc(F)c(=O)[nH]1 [5-fluoro-2,4(1H,3H)-pyrimidinedione] + CO
Conditions | molar enthalpy of solution [kJ/mol]
m1 = 0.000844 | 14.5 ± 0.58
m1 = 0.000963 | 14.4 ± 0.58
m1 = 0.001039 | 14.3 ± 0.57
m1 = 0.00126 | 14.3 ± 0.57
m1 = 0.001578 | 14.3 ± 0.57
m1 = 0.001848 | 14.5 ± 0.58

O=c1cc(Cl)[nH]c(=O)[nH]1 [6-chlorouracil] + CO
Conditions | molar enthalpy of solution [kJ/mol]
m1 = 0.000624 | 16.8 ± 0.67
m1 = 0.000862 | 17 ± 0.68
m1 = 0.000948 | 17.3 ± 0.69
m1 = 0.001116 | 16.9 ± 0.68
m1 = 0.001609 | 17.9 ± 0.72
m1 = 0.00168 | 17.4 ± 0.7

O=c1cc[nH]c(=O)[nH]1 [2,4(1H,3H)-pyrimidinedione] + CO
Conditions | molar enthalpy of solution [kJ/mol]
m1 = 0.000848 | 14.9 ± 0.6
m1 = 0.000858 | 15.1 ± 0.6
m1 = 0.00105 | 14 ± 0.56
m1 = 0.00109 | 14 ± 0.56
m1 = 0.001223 | 13.7 ± 0.55
m1 = 0.001317 | 13.7 ± 0.55

O=c1[nH]cc(Br)c(=O)[nH]1 [5-bromouracil] + CO
Conditions | molar enthalpy of solution [kJ/mol]
m1 = 0.000472 | 14.8 ± 1.2
m1 = 0.000548 | 14 ± 1.1
m1 = 0.000563 | 15.6 ± 1.2
m1 = 0.00102 | 15 ± 1.2
m1 = 0.001023 | 15.1 ± 1.2
m1 = 0.00125 | 14.6 ± 1.2

O=c1[nH]cc(C(F)(F)F)c(=O)[nH]1 [5-(trifluoromethyl)uracil] + CO
Conditions | molar enthalpy of solution [kJ/mol]
m1 = 0.000648 | 16 ± 0.64
m1 = 0.000687 | 16.5 ± 0.66
m1 = 0.000724 | 15.7 ± 0.63
m1 = 0.00076 | 15.1 ± 0.6
m1 = 0.000813 | 15 ± 0.6
m1 = 0.000845 | 15.8 ± 0.63

O=c1[nH]cc(I)c(=O)[nH]1 [5-iodouracil] + CO
Conditions | molar enthalpy of solution [kJ/mol]
m1 = 0.000481 | 18.3 ± 0.73
m1 = 0.000487 | 18.2 ± 0.73
m1 = 0.000551 | 17.6 ± 0.71
m1 = 0.000618 | 18.3 ± 0.73
m1 = 0.000626 | 18 ± 0.72
m1 = 0.000769 | 17.6 ± 0.7
